Results: patent publication US20180187263A1, “KITS FOR DIAGNOSTIC DETECTION AND PREVENTION OF FEEDLOT BOVINE RESPIRATORY DISEASE” (Iowa State University Research Foundation, Inc., priority 2017, published 2018)

Experiments:
[1] = system: BRD in high-risk calves; assay: BRD prevention in high-risk calves, weekly injections (Example 13); format: in vivo; details: weekly injections over five weeks; rupatadine 7 mg/kg subcutaneous, tripelennamine 1 mg/kg, WEB2086 10 mg/kg; five calves per group
Protocol: Twenty-five high-risk BRD calves were transported to a new barn and five each were assigned to different treatment groups: no treatment, weekly subcutaneous injections of 7 mg/kg of rupatadine, weekly injections of 1 mg/kg tripelennamine, weekly injections of 10 mg/kg WEB2086, and weekly injections of 1 mg/kg tripelennamine and 10 mg/kg WEB2086. The animals were observed over the next five weeks twice daily for BRD. Any animal who required antibiotics for treating the clinical signs of BRD was classified as having BRD. […] Four of the five (80%, n=4 of 5) animals receiving tripelennamine only developed BRD.

[2] = target: T1, Bovine H1 histamine receptor (Bos taurus, UniProt P30546); assay: histamine-mediated intracellular calcium accumulation in BHK cells transiently expressing bovine H1 histamine receptor; format: cell-based; details: 10 nM histamine
T1 construct: expressed in transfected cells; host or cells: BHK cells, transient, lipofectamine, pcDNA3.3
T1 sequence (P30546 whole entry): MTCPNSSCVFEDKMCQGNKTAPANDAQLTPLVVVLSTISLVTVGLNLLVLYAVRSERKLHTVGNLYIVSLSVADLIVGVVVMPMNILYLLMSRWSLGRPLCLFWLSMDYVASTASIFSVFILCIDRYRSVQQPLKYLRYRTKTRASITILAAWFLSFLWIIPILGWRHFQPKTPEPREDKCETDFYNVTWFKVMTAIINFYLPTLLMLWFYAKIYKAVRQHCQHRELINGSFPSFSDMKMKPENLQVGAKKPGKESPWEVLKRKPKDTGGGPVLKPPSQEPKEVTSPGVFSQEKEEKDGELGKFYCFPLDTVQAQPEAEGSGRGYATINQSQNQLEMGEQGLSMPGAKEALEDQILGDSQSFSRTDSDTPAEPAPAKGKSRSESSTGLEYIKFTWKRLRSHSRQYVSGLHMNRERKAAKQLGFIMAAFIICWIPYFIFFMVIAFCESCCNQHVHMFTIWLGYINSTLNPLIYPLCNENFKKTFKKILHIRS
Protocol: Bovine H1 histamine receptor was cloned into pcDNA3.3 expression vector and transiently expressed in BHK tissue culture cells using lipofectamine as per Carlson et al. Ten nM histamine was then added to the cells in the presence of various concentrations of rupatadine, tripelennamine, lexipafant, or WEB2086. Intracellular calcium accumulation was monitored in the transfected cells using a commercially available kit (Abcam, Cambridge, Mass.). IC50 values were then determined by identifying the concentration of the antagonist that reduced the maximal PAF-mediated intracellular calcium accumulation by 50%. […] Therefore, as showing in Examples 11 and 12, rupatadine is the only antihistamine that can also block the function of PAFR.

[3] = target: T2, Bovine PAFR (Bos taurus, UniProt Q9TTY5); assay: PAF-mediated intracellular calcium accumulation in BHK cells transiently expressing bovine PAFR; format: cell-based; details: 10 nM PAF; for block of bovine PAFR (PAF-mediated intracellular calcium accumulation), FIG. 11: antagonist 1-100 nM, PAFR antagonists panel; for block of bovine PAFR (PAF-mediated intracellular calcium accumulation), FIG. 12: antihistamines 1-100 nM
T2 construct: expressed in transfected cells; host or cells: BHK cells, transient, lipofectamine, pcDNA3.3
T2 sequence (Q9TTY5 whole entry): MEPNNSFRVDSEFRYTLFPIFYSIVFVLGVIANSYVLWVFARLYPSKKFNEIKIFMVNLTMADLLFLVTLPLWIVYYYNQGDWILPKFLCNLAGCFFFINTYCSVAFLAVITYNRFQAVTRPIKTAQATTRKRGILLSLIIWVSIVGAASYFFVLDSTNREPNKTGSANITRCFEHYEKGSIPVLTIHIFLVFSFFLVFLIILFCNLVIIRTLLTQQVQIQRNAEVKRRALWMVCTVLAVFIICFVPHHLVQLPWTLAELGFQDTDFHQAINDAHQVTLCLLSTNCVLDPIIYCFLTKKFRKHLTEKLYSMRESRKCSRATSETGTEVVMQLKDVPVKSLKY
Protocol: Bovine PAFR was cloned into pcDNA3.3 expression vector and transiently expressed in BHK tissue culture cells using lipofectamine as per Carlson et al., J Biol Chem, 271:23146053 (1996), herein incorporated by reference in its entirety. Ten nM PAF was then added to the cells in the presence of various concentrations of various antagonists: rupatadine, lexipafant (as in Kingsnorth, et al., BJS, 82:1414-20 (1995), herein incorporated in its entirety), and WEB2086 a PAF antagonist which has not been commercialized and/or used in humans to date (as in Casals-Stenzel et al., J of Pharmacolo Experimental Therapeutics, 241:974-81 (1987), herein incorporated in its entirety), as well as tripelennamine, a bovine-approved antihistamine at concentrations ranging between 1-100 nM. Intracellular calcium accumulation was monitored in the transfected cells using a commercially available kit (Abcam, Cambridge). IC50 values were then determined by identifying the concentration of the antagonist that reduced the maximal PAF-mediated intracellular calcium accumulation by 50%.
Various antihistamines were also tested. […] Intracellular calcium accumulation was monitored in the transfected cells using a commercially available kit (Abcam, Cambridge). IC50 values were then determined by identifying the concentration of the antagonist that reduced the maximal PAF-mediated intracellular calcium accumulation by 50%.

[4] = system: PAFR; assay: weekly blood PAFR level by qRT-PCR (Example 14); format: in vivo, calves
Protocol: Blood was extracted from all 25 calves was extracted weekly and the level of PAFR was assayed using qRT-PCR and the theoretical copies of transcript/200 ng of total RNA. […] However, it dropped the most in the weekly depot injection calves during the last three weeks of observations.

[5] = pharmacotherapeutic study, blood levels after oral administration; format: in vivo; details: daily oral doses of 30 mg/animal for 5 days; six calves; FIG. 9
Protocol: A pharmacotherapeutic study was completed to confirm the PAFRi survives the rumen and reaches therapeutic blood and lung concentrations following oral administration to feedlot calves. Six calves were purchased and given daily oral doses of 30 mg/animal of the drug rupatadine for 5 days. Blood was drawn five times on day one and twice per day thereafter to measure the blood levels of rupatadine.
In addition to the blood levels of the drug, the amount of the drug in the muscle tissue is also analyzed. Six recently weaned feedlot calves were orally dosed with […] of rupatadine once a day for five days, a dose that was determined based on allometric scaling from human data. Blood samples were taken at 0, 2, 4, 8, 12, 24, 48, 72, 96, and 120 hours after the first dose. Calves were euthanized at the 120-hour time point at which lungs samples were removed. Samples were submitted to the PhAST laboratory at Iowa State University, for LCMS-based quantitation of the drug and its primary metabolite that is pharmacologically active.

[6] = system: lung pathology; assay: lung necropsy after five weeks of treatment (Example 13); format: in vivo; details: after five weeks of weekly 7 mg/kg subcutaneous injections; BRD(+) calves usually >25%
Source text: After the five weeks, the rupatadine treated animals were euthanized and the lungs removed and necropsied. Three veterinarians then assessed the lungs for signs of disease, such as abscessation or consolidation. […] Lung pathology in BRD(+) calves is usually >25%, and of the rupatadine treated animals, there was only about 5-10% disease identified by the veterinarians.

[7] = system: BRD in feedlot calves; assay: BRD prevention at the feedlot, drug in the feed (Examples 5-7); format: in vivo
Protocol: An initial study was performed to confirm BRD prevention at the feedlot using an anti-inflammatory composition comprising rupatadine, the oral inhibitor of PAFR. A total of 18 calves were evaluated with the treatment arm receiving a dosage rate of 0.3 mg/kg. Calves were provided the drug in the feed during the first three weeks after entering the feedlot which is within the high risk 6-week period following transfer of the animal. Calves were purchased from a location in Joplin, Mo. having an overall incidence of BRD at >40% which is higher than the standard incidence of about 10% in cattle.
A further study was performed to confirm BRD prevention at the feedlot using the anti-inflammatory composition comprising rupatadine. The same methodology of Example 5 was employed with the modification of the number of calves and the dosage rate. The dosage rate was increased to 0.6 mg/kg. The number of calves were increased to 24 in total. The results are consistent to the first trial, including: 41.7% of treated calves (n=5 of 12) developed BRD whereas 100% of untreated calves (n=12 of 12) developed BRD.
A further study was performed to confirm BRD prevention at the feedlot using the anti-inflammatory composition comprising rupatadine as outlined in Example 5 with the modification of the number of calves (20 total) and the dosage rate. The dosage rate increased to 1.2 mg/kg.

[8] = target: T3, PAFR (Bos taurus, UniProt Q9TTY5); assay: stress hormone- and commensal oral bacteria-mediated second messenger accumulation in calf blood cells; format: cell-based, cattle; details: 500 nM inhibitor; cortisol 5 ng/mL, norepinephrine 100 pg/mL, 10^6 CFUs/mL commensal oral bacteria; six hours at 37° C.
T3 construct: second messenger accumulation in calf blood cells that have an increase in expression of PAFR; endogenous in cells; host or cells: bovine whole blood cells (ex vivo)
T3 sequence (Q9TTY5 whole entry): as above
Source text: A PAFR inhibitor blocks the stress hormone- and commensal oral bacteria-mediated second messenger accumulation in calf blood cells that have an increase in expression of PAFR. Studies presented in Example 1 and FIG. 1 were repeated with the inclusion of the compositions comprising the anti-inflammatory drug rupatadine according to the invention. Blood was drawn from 10 animals that have an increase in PAFR expression (those in which an RT-PCR amplicon was visible after 10-15 cycles) and 10 animals with “normal” or no PAFR expression (those in which an RT-PCR amplicon was visible after 30-45 cycles).
Approximately 5 mL of whole blood was collected from the jugular or caudal vein of non-transported juvenile and adult cattle. Blood was placed in EDTA tubes, aliquoted, and cortisol (5 ng/mL) and norepinephrine (100 pg/mL) were added to some of the blood. The next day, blood samples were incubated with 0 or 10^6 CFUs/mL of commensal oral bacteria, 0 or 500 nM of the inhibitor, and a second messenger reagent for six hours at 37° C. with gentle rolling. After the six-hour incubation period, blood samples were analyzed for the production of second messengers. Data was standardized based on second messenger production in the presence of vehicle. […] Fifty ng of total RNA was then subjected to semi-quantitative RT-PCR to confirm the PAFR expression status of each animal.

[9] = system: BRD in high-risk calves; assay: BRD prevention in high-risk calves, comparison of rupatadine treatment methods (Example 14); format: in vivo; details: for calves that developed BRD: five-week observation, n=6
Protocol: In order to test various treatment methods of rupatadine, 25 high-risk calves were transported to a new farm. Seven calves were used as controls, six were given rupatadine as a single oral dose of 1 mg/kg, six were given rupatadine as a single subcutaneous injection of 7 mg/kg, six calves were given weekly subcutaneous injections of 7 mg/kg rupatadine. The animals were observed over the next five weeks twice daily for BRD. Any animal who required antibiotics for treating the clinical signs of BRD was classified as having BRD.

Row | SMILES | animals that developed BRD [1] [%] | block of H1 histamine receptor function, FIG. 13 [2] | block of bovine PAFR (PAF-mediated intracellular calcium accumulation), FIG. 11 [3] | block of bovine PAFR (PAF-mediated intracellular calcium accumulation), FIG. 12 [3] | further results
1 | Cc1nnc2n1-c1sc(CCC(=O)N3CCOCC3)cc1C(c1ccccc1Cl)=NC2 [WEB2086] | 100 | fail to black | blocked | – | –
2 | CN(C)CCOC(c1ccccc1)c1ccccc1 [diphenhydramine] | – | – | – | do not block | –
3 | OCCOCCN1CCN(C(c2ccccc2)c2ccc(Cl)cc2)CC1 (stereo not shown) [hydroxyazine, hydroxyzine] | – | – | – | do not block | –
4 | CCOC(=O)[C@H](CC(C)C)N(C)S(=O)(=O)c1ccc(Cn2c(C)nc3cnccc32)cc1 [lexipafant] | – | fail to black | blocked | – | –
5 | CC(CN1c2ccccc2Sc2ccccc21)N(C)C (stereo not shown) [promethazine] | – | – | – | do not block | –
6 | COc1ccc(CN(CCN(C)C)c2ccccn2)cc1 [pyrilamine] | – | – | – | do not block | –
7 | Cc1cncc(CN2CCC(=C3c4ccc(Cl)cc4CCc4cccnc43)CC2)c1 [rupatadine, 8-chloro-11-[1-[(5-methyl-3-pyridyl)methyl]-4-piperidyliden]-6,11-dihydro-5H-benzo[5,6]cyclohepta[1,2-b]pyridine] | 0 | block | blocked | blocks | decrease in PAFR expression over five weeks ([4]; weekly depot injection 7 mg/kg versus control and other rupatadine treatments, FIG. 21): greatest decrease; PAFR expression at 35 days ([4]; weekly injections 7 mg/kg, 35 days): below ‘normal’ expression; blood levels: time to reach therapeutic concentrations [5]: reaches therapeutic concentrations more rapidly than in humans; lung disease identified by the veterinarians [6]: 5-10%; treated calves that developed BRD ([7]; 0.3 mg/kg in the feed during first three weeks after entering feedlot, 8 treated calves, within 5 weeks): 50%; reduction in BRD ([7]; 0.3 mg/kg in the feed, versus calves that received no drug): 50%; second messenger accumulation in samples with increased PAFR expression [8]: indistinct from normal or non-expressing samples; calves that developed BRD ([9]; single oral dose of 1 mg/kg): 100%; calves that developed BRD ([9]; single subcutaneous long-acting injection of 7 mg/kg): 83.3%; calves that developed BRD ([9]; weekly subcutaneous injections of 7 mg/kg): 16.7%; day on which BRD developed ([9]; weekly subcutaneous injections of 7 mg/kg, the one calf that developed BRD): 31 days
8 | CN(C)CCN(Cc1ccccc1)c1ccccn1 [tripelennamine] | 80 | block | not blocked | do not block | –
